Tests used:
Format in all cases: in vivo
[1] = test system: chickweed (Stellaria media); assay: Test B postemergence plant response; details: for Plant response rating, Chickweed: Postemergence
In short: (§1)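 Visual ratings from 0 (no effect) to 100 (complete control), made against controls 13–15 days after treatment, kept in a greenhouse. Compounds were applied postemergence to potted plants at the 1- to 4-leaf stage (2–18 cm).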

[2] = test system: canarygrass (Phalaris minor); assay: Test B postemergence plant response; details: for Plant response rating, Canarygrass: Postemergence
In short: as §1

[3] = test system: windgrass (Apera spica-venti); assay: Test B postemergence plant response; details: for Plant response rating, Windgrass: Postemergence
In short: as §1

[4] = test system: ragweed (common ragweed, Ambrosia elatior); assay: Test B pre-/postemergence plant response; details: for Plant response rating, Ragweed: Postemergence
Description: (§2) Seeds of plant species selected from blackgrass (Alopecurus myosuroides), downy bromegrass (Bromus tectorum), green foxtail (Setaria viridis), Italian ryegrass (Lolium multiflorum), wheat (Triticum aestivum), wild oat (Avena fatua), deadnettle (henbit deadnettle, Lamium amplexicaule), galium (catchweed bedstraw, Galium aparine), bermudagrass (Cynodon dactylon), Surinam grass (Brachiaria decumbens), cocklebur (Xanthium strumarium), corn (Zea mays), large crabgrass (Digitaria sanguinalis), woolly cupgrass (Eriochloa villosa), giant foxtail (Setaria faberii), goosegrass (Eleusine indica), johnsongrass (Sorghum halepense), kochia (Kochia scoparia), lambsquarters (Chenopodium album), morningglory (Ipomoea coccinea), nightshade (eastern black nightshade, Solanum ptycanthum), yellow nutsedge (Cyperus esculentus), pigweed (Amaranthus retroflexus), ragweed (common ragweed, Ambrosia elatior), Russian thistle (Salsola kali), soybean (Glycine max), sunflower (common oilseed sunflower, Helianthus annuus) and velvetleaf (Abutilon theophrasti) were planted into a blend of loam soil and sand and treated preemergence with test compounds formulated in a non-phytotoxic solvent mixture which included a surfactant.
(§3) At the same time, plants selected from these crop and weed species and also winter barley (Hordeum vulgare), canarygrass (Phalaris minor), chickweed (Stellaria media) and windgrass (Apera spica-venti) were planted in pots containing Redi-Earth® planting medium (Scotts Company, 14111 Scottslawn Road, Marysville, Ohio 43041) comprising spaghnum peat moss, vermiculite, wetting agent and starter nutrients and treated with postemergence applications of some of the test chemicals formulated in the same manner. Plants ranged in height from 2 to 18 cm (1- to 4-leaf stage) for postemergence treatments.
(§4) Treated plants and controls were maintained in a greenhouse for 13 to 15 days, after which time all treated plants were visually evaluated and compared to controls. Plant response ratings, summarized in Table B, are based on a scale of 0 to 100 where 0 is no effect and 100 is complete control. A dash (-) response means no test result.

[5] = test system: wheat (Triticum aestivum); assay: Test B pre-/postemergence plant response; details: for Plant response rating, Wheat: Postemergence
Description: as §2, §3, §4

[6] = test system: kochia (Kochia scoparia); assay: Test B pre-/postemergence plant response; details: for Plant response rating, Kochia: Postemergence
Description: as §2, §3, §4

[7] = test system: cocklebur (Xanthium strumarium); assay: Test B pre-/postemergence plant response; details: for Plant response rating, Cocklebur: Postemergence
Description: as §2, §3, §4

[8] = test system: downy bromegrass (Bromus tectorum); assay: Test B pre-/postemergence plant response; details: for Plant response rating, Bromegrass, Downy: Postemergence
Description: as §2, §3, §4

[9] = test system: yellow nutsedge (Cyperus esculentus); assay: Test B pre-/postemergence plant response; details: for Plant response rating, Nutsedge, Yellow: Postemergence
Description: as §2, §3, §4

[10] = test system: wild oat (Avena fatua); assay: Test B pre-/postemergence plant response; details: for Plant response rating, Oat, Wild: Postemergence
Description: as §2, §3, §4

[11] = test system: giant foxtail (Setaria faberii); assay: Test B pre-/postemergence plant response; details: for Plant response rating, Foxtail, Giant: Postemergence
Description: as §2, §3, §4

[12] = test system: soybean (Glycine max); assay: Test B pre-/postemergence plant response; details: for Plant response rating, Soybean: Postemergence
Description: as §2, §3, §4

[13] = test system: johnsongrass (Sorghum halepense); assay: Test B pre-/postemergence plant response; details: for Plant response rating, Johnsongrass: Postemergence
Description: as §2, §3, §4

[14] = test system: blackgrass (Alopecurus myosuroides); assay: Test B pre-/postemergence plant response; details: for Plant response rating, Blackgrass: Postemergence
Description: as §2, §3, §4

[15] = test system: velvetleaf (Abutilon theophrasti); assay: Test B pre-/postemergence plant response; details: for Plant response rating, Velvetleaf: Postemergence
Description: as §2, §3, §4

[16] = test system: green foxtail (Setaria viridis); assay: Test B pre-/postemergence plant response; details: for Plant response rating, Foxtail, Green: Postemergence
Description: as §2, §3, §4

[17] = test system: morningglory (Ipomoea coccinea); assay: Test B pre-/postemergence plant response; details: for Plant response rating, Morningglory: Postemergence
Description: as §2, §3, §4

[18] = test system: bermudagrass (Cynodon dactylon); assay: Test B pre-/postemergence plant response; details: for Plant response rating, Bermudagrass: Postemergence
Description: as §2, §3, §4

[19] = 62 g ai/ha, postemergence, 0 is no effect, 100 is complete control, 13 to 15 days
[20] = 31 g ai/ha, 0 to 100 scale (0 no effect, 100 complete control)
[21] = 125 g ai/ha, scale 0 to 100 (0 no effect, 100 complete control)
[22] = 250 g ai/ha, scale 0 to 100 (0 no effect, 100 complete control), 13 to 15 days

O=C1CCCC(O)=C1C(=O)c1cnc(-c2ccccc2)n(C2CCOCC2)c1=O [Compound 129]
Chickweed plant response rating (0 to 100 scale) [1, 19]: 85 | Plant response rating, Chickweed [1, 20]: 85 | Plant response rating, Chickweed [1, 21]: 90 | Plant response rating, Chickweed [1, 22]: 100 | Canarygrass plant response rating (0 to 100 scale) [2, 19]: 0 | Plant response rating, Canarygrass [2, 20]: 0 | Plant response rating, Canarygrass [2, 21]: 0 | Plant response rating, Canarygrass [2, 22]: 0 | Windgrass plant response rating (0 to 100 scale) [3, 19]: 60 | Plant response rating, Windgrass [3, 20]: 45 | Plant response rating, Windgrass [3, 21]: 80 | Plant response rating, Windgrass [3, 22]: 85 | Ragweed plant response rating (0 to 100 scale) [4, 19]: 95 | Plant response rating, Ragweed [4, 20]: 90 | Plant response rating, Ragweed [4, 21]: 95 | Plant response rating, Ragweed [4, 22]: 95 | Wheat plant response rating (0 to 100 scale) [5, 19]: 0 | Plant response rating, Wheat [5, 20]: 0 | Plant response rating, Wheat [5, 21]: 0 | Plant response rating, Wheat [5, 22]: 0 | Kochia plant response rating (0 to 100 scale) [6, 19]: 95 | Plant response rating, Kochia [6, 20]: 80 | Plant response rating, Kochia [6, 21]: 95 | Plant response rating, Kochia [6, 22]: 98 | Cocklebur plant response rating (0 to 100 scale) [7, 19]: 98 | Plant response rating, Cocklebur [7, 20]: 95 | Plant response rating, Cocklebur [7, 21]: 98 | Plant response rating, Cocklebur [7, 22]: 100 | Bromegrass, Downy plant response rating (0 to 100 scale) [8, 19]: 10 | Plant response rating, Bromegrass, Downy [8, 20]: 5 | Plant response rating, Bromegrass, Downy [8, 21]: 15 | Plant response rating, Bromegrass, Downy [8, 22]: 35 | Nutsedge, Yellow plant response rating (0 to 100 scale) [9, 19]: 35 | Plant response rating, Nutsedge, Yellow [9, 20]: 35 | Plant response rating, Nutsedge, Yellow [9, 21]: 60 | Plant response rating, Nutsedge, Yellow [9, 22]: 85 | Oat, Wild plant response rating (0 to 100 scale) [10, 19]: 5 | Plant response rating, Oat, Wild [10, 20]: 0 | Plant response rating, Oat, Wild [10, 21]: 20 | Plant response rating, Oat, Wild [10, 22]: 30 | Foxtail, Giant plant response rating (0 to 100 scale) [11, 19]: 85 | Plant response rating, Foxtail, Giant [11, 20]: 70 | Plant response rating, Foxtail, Giant [11, 21]: 90 | Plant response rating, Foxtail, Giant [11, 22]: 98 | Soybean plant response rating (0 to 100 scale) [12, 19]: 98 | Plant response rating, Soybean [12, 20]: 95 | Plant response rating, Soybean [12, 21]: 98 | Plant response rating, Soybean [12, 22]: 98 | Johnsongrass plant response rating (0 to 100 scale) [13, 19]: 45 | Plant response rating, Johnsongrass [13, 20]: 40 | Plant response rating, Johnsongrass [13, 21]: 70 | Plant response rating, Johnsongrass [13, 22]: 85 | Blackgrass plant response rating (0 to 100 scale) [14, 19]: 5 | Plant response rating, Blackgrass [14, 20]: 0 | Plant response rating, Blackgrass [14, 21]: 5 | Plant response rating, Blackgrass [14, 22]: 5 | Velvetleaf plant response rating (0 to 100 scale) [15, 19]: 95 | Plant response rating, Velvetleaf [15, 20]: 95 | Plant response rating, Velvetleaf [15, 21]: 95 | Plant response rating, Velvetleaf [15, 22]: 100 | Foxtail, Green plant response rating (0 to 100 scale) [16, 19]: 90 | Plant response rating, Foxtail, Green [16, 20]: 80 | Plant response rating, Foxtail, Green [16, 21]: 90 | Plant response rating, Foxtail, Green [16, 22]: 95 | Morningglory plant response rating (0 to 100 scale) [17, 19]: 90 | Plant response rating, Morningglory [17, 20]: 90 | Plant response rating, Morningglory [17, 21]: 90 | Plant response rating, Morningglory [17, 22]: 90 | Bermudagrass plant response rating (0 to 100 scale) [18, 19]: 80 | Plant response rating, Bermudagrass [18, 20]: 80 | Plant response rating, Bermudagrass [18, 21]: 95 | Plant response rating, Bermudagrass [18, 22]: 98

Source: patent US8952024B2, “Herbicidal pyrimidone derivatives” (E I du Pont de Nemours and Company, priority 2009, dated 2015)
